# Results from ChEMBL document CHEMBL1201862, “PubChem BioAssay data set” (2004).
# Active and inactive are the calls of the source.
# Columns and labels:
# [1] = Luminescence Cell-Based/Microorganism Confirmation at Dose of Inhibitors of Trypanosoma cruzi Infection. [Related pubchem assays: 1885, 1968 ]; format: functional
# [2] = biological target: T1, Microphthalmia-associated transcription factor (Homo sapiens, UniProt O75030); assay: reducers of TRPM1 reporter luminescence, concentration series – cell-based, SK-MEL-5, cherry-picked, set 3, MITF inhibitor project, dose response (AID 493073); format: functional;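 note: SK-MEL-5 melanoma cells with luciferase driven by the MITF target TRPM1 promoter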
# T1 sequence (O75030 whole entry): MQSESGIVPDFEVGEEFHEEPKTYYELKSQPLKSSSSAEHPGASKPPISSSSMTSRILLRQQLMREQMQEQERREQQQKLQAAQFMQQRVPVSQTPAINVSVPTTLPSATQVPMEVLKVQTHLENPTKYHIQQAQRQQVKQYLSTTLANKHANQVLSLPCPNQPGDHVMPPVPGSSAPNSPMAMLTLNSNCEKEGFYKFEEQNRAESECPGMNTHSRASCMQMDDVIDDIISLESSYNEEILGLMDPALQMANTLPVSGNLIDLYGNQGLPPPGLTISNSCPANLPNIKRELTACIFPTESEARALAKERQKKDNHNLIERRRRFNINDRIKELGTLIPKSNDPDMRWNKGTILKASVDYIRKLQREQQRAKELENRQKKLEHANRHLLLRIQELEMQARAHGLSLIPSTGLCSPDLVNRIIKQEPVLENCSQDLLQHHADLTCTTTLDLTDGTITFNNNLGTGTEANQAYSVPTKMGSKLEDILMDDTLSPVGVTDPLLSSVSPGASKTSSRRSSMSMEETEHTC
# [3] = Luminescence Cell-Based Secondary HTS screen to identify cytotoxic compounds of NIH3T3 cells. [Related pubchem assays: 1885, 1968 ]; format: functional
# [4] = NIH3T3 cell viability loss – ATP luminescence, mouse fibroblasts, counter-screen, dose response (AID 2010); format: functional, cell-based;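 note: cells exposed to compound for about 90 hours before reading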
# [5] = T. cruzi infection blockers in NIH3T3 cells – beta-gal luminescence, NIH3T3 host cells, confirmation (AID 2630); format: functional, cell-based; details: Mus musculus
# [6] = system: INS1; assay: INS-1E survival protection against cytokine death – cell-based, luminescence, retest, dose response (AID 449756); format: functional; details: Rattus norvegicus;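 note: cell death triggered by IL-1 beta plus TNF-alpha plus IFN-gamma mixture; protective hits raise ATP signal compared with cytokine alone wells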
# [7] = cells
# [8] = Trypanosoma cruzi growth suppression in host cells – NIH3T3 host cells, beta-gal luminescence, confirmation (AID 2044); format: functional, cell-based;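 note: intracellular parasites grown in NIH/3T3 mouse fibroblasts as host cells; luminescent beta-galactosidase reporter signal from transgenic T. cruzi replicating inside host cells; inhibitors lower the luminescence signal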
# [9] = system: BJ; assay: cells; format: functional, cell-based; details: Homo sapiens
# [10] = reduction of Shn3 3'UTR-driven luciferase in osteoblasts – cell-based, Clone20 osteoblasts, firefly luciferase, cherry-picked, dose response (AID 624132); format: functional;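 note: firefly luciferase luminescence from reporter carrying the Shn3 3'UTR in osteoblasts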
# [11] = system: BJ; assay: BJ-TERT fibroblast viability loss – cell-based, RAS-independent, luminescence, dose response (AID 1933); format: functional; details: Homo sapiens
# [12] = biological target: Paired box protein Pax-8 (Homo sapiens, UniProt Q06710); assay: PAX8 transcriptional activity inhibition in RMG-I – RMG-I cells, luciferase, cherry-pick, dose response (AID 687027); format: functional, cell-based;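 note: luciferase reporter driven by Pax8 target thyroperoxidase promoter measured by SteadyGlo luminescence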
# [13] = HEK-293T viability loss, compound-treated – cell-based, uHTS hits, cytotoxicity control for B/T-cell NF-kB inhibitor project, dose response (AID 489019); format: functional;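 note: IC50 reflects cytotoxicity as loss of cell viability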
# [14] = toxicity toward HepG2 liver cells – cell-based, plate reader, cherry-pick, antagonist series, cytotoxicity control, dose response (AID 743416); format: functional
# [15] = system: BJ; assay: growth inhibition of engineered Ras-driven BJ cells – cell-based, alamar blue fluorescence, cherrypicked samples, dose response (AID 2631); format: functional; details: Homo sapiens;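 note: confirmatory dose-response assay in RAS-dependent BJ fibroblasts engineered with TERT, LT and ST, with cytotoxicity read by fluorescence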
# [16] = DRD fibroblast viability loss – cell-based, non-viral oncogenic, luminescence, dose response (AID 1934); format: functional; details: Homo sapiens
# [17] = biological target: Heat shock protein HSP 90-alpha (Homo sapiens, UniProt P07900); format: functional, organism-based
# [18] = blockers of HIV-1 ZM109 envelope-driven cell-cell fusion – HeLa effector, CEM target cells, luciferase, cherry-pick, dose response (AID 652058); format: functional, cell-based;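 note: luciferase signal from HIV-1 Env mediated cell-cell fusion of effector and target cells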
# [19] = blockade of melanocortin 4 receptor signaling – cell-based, plate reader, cherry pick, counter-screen for LGR2 antagonist project, dose response (AID 743444); format: functional;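 note: transfected HEK 293 cells stimulated with alpha-MSH peptide; potency of inhibitors of the alpha-MSH evoked signal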
# [20] = off-target signal loss in HeLa-CEM21 co-culture – HeLa F-luc CTL cells, cherry-picked, counter-screen for HIV-1 Env fusion inhibitor project, dose response (AID 652040); format: functional, cell-based;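 note: potency for signal decrease marking cytotoxic or nonspecific inhibition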
# [21] = A549 cell cytotoxicity, dose response, cytotoxicity control, plate reader, cherry-pick, antagonist series (AID 743412); format: functional, cell-based
# [22] = biological target: Luciferin 4-monooxygenase (Photinus pyralis, UniProt P08659); assay: inhibition of purified Photinus pyralis luciferase – biochemical, luminescence, dose response (AID 1891)
# [23] = general cell-killing toxicity readout – plate reader, dry powder samples, cytotoxicity control for PAX8 inhibitor project, dose response (AID 743021); format: functional, cell-based
# [24] = viability loss in HEK293 cells – cell-based, plate reader, cherry-picked samples, cytotoxicity control, dose response (AID 743446); format: functional
# [25] = viability loss in CEM21 cells – cell-based, CellTiter-Glo luminescence, cherry-picked, cytotoxicity control for viral fusion inhibitor project, dose response (AID 652042); format: functional;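 note: potency for signal decrease meaning cytotoxicity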
# [26] = biological target: Photoreceptor-specific nuclear receptor (Homo sapiens, UniProt Q9Y5X4); format: functional, cell-based;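 note: CHO-S cells with Gal4-NCOR and VP16-NR2E3 two-hybrid luciferase reporter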
# [27] = loss of viability in HepG2 cells – cell-based, CellTiter-Glo, cherry-picked, cytotoxicity control for Shn3 inhibitor project, dose response (AID 624134); format: functional
# [28] = Luminescence Cell-Based Dose Confirmation HTS to Identify Inhibitors of Platelet Dense Granule Release. [Related pubchem assays: 1663 (Primary HTS), 1678 (Summary of Project)]; format: functional
# [29] = blockers of bursicon-stimulated LGR2 cAMP reporter – cell-based, HEK293, CRE-luciferase reporter, cherry pick, set 2, dose response (AID 743343); format: functional;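 note: transfected cells were stimulated with diluted bursicon conditioned medium after compound addition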
# [30] = blockers of HIV-1 envelope-mediated cell-cell fusion – cherry-pick, dose response (AID 652057); format: functional, cell-based
# [31] = system: Jurkat; assay: blockers of NF-kB activation in T cells – Jurkat, luciferase reporter, luminescence, B- and T-cell, dose response (AID 489004); format: functional, cell-based; details: Homo sapiens;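 note: NF-kB luciferase reporter Jurkat cells stimulated with PMA plus ionomycin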
# [32] = system: BJ; assay: BJ-TERT-LT-ST fibroblast viability loss – cell-based, RAS-independent, luminescence, dose response (AID 1935); format: functional; details: Homo sapiens;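 note: BJ fibroblasts immortalized with TERT plus LT and ST oncogenes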
# [33] = HIV-1 AD8 envelope cell-cell fusion blockers – cherry-pick, dose response (AID 652062); format: functional, cell-based;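 note: luciferase signal from cell-cell fusion driven by HIV-1 clade B AD8 Env; potency is for inhibitors of fusion seen as a drop in luminescence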
# [34] = system: INS1; assay: INS-1E mitochondrial potential rescue under cytokines – cell-based, JC-1 fluorescence ratio, dry powder, dose response (AID 488931); format: functional; details: Rattus norvegicus
# [35] = biological target: Lysine-specific demethylase 4A (Homo sapiens, UniProt O75164); assay: inhibition of JMJD2A H3K9me3 demethylation – biochemical, DELFIA europium, cherry-picked samples, selectivity assay for GASC-1 inhibitor project, dose response (AID 488840)
# [36] = system: Escherichia coli; assay: microbe, parasite or virus in culture
# [37] = biological target: T2, Ubiquitin-conjugating enzyme E2 N (Homo sapiens, UniProt P61088); format: functional;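 note: Dose-response confirmation in a TR-FRET assay detecting UBC13-driven polyubiquitin chain formation, inhibition measured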
# T2 sequence (P61088 whole entry): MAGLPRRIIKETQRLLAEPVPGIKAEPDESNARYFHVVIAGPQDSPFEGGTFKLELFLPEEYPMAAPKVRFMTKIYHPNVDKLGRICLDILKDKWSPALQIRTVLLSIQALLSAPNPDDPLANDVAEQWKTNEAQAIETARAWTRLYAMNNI
# [38] = system: Escherichia coli; assay: microbe, parasite or virus in culture; remark: listed apart in the source
# [39] = biological target: T3, Short transient receptor potential channel 4 (Mus musculus, UniProt Q9QUQ5); assay: potency of mouse TRPC4 calcium flux blockers – cell-based, HEK293 TRPC4/mu-opioid, DAMGO stimulus, Fluo-4, dose response (AID 492994); format: functional
# T3 sequence (Q9QUQ5 whole entry): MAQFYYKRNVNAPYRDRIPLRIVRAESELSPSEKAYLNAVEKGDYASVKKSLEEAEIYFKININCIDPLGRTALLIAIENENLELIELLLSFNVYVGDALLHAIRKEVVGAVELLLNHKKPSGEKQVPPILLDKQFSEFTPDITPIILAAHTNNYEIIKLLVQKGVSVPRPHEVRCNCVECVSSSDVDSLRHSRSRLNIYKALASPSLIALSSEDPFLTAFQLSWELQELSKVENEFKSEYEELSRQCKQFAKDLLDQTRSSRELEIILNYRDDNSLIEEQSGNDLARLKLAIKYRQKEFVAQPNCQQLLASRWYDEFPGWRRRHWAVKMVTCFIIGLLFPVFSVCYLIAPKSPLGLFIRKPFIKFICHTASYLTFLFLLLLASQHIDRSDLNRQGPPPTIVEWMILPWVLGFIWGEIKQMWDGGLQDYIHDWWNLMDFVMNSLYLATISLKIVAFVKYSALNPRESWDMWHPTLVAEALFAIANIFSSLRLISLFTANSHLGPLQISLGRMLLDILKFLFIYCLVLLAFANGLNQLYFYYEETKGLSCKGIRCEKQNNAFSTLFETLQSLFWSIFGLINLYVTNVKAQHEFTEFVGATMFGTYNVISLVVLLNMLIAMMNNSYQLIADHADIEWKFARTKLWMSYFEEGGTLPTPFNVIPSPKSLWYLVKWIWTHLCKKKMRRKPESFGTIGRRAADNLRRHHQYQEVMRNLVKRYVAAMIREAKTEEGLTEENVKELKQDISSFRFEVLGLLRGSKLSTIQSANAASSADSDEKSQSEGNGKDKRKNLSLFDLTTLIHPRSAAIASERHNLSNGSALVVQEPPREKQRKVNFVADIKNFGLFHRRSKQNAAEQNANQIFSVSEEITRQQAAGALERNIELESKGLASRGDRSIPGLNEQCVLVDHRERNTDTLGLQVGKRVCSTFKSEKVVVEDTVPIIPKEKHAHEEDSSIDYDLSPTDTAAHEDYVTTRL
# [40] = biological target: T3, Short transient receptor potential channel 4; assay: SAR Analysis for the identification of selective inhibits of the transient receptor potential cation channel C4 (TRPC4): Automated Electrophysiology_2. [Related pubchem assays (depositor defined):AID2256]; format: functional
# Sequence of Lysine-specific demethylase 4A (O75164 whole entry): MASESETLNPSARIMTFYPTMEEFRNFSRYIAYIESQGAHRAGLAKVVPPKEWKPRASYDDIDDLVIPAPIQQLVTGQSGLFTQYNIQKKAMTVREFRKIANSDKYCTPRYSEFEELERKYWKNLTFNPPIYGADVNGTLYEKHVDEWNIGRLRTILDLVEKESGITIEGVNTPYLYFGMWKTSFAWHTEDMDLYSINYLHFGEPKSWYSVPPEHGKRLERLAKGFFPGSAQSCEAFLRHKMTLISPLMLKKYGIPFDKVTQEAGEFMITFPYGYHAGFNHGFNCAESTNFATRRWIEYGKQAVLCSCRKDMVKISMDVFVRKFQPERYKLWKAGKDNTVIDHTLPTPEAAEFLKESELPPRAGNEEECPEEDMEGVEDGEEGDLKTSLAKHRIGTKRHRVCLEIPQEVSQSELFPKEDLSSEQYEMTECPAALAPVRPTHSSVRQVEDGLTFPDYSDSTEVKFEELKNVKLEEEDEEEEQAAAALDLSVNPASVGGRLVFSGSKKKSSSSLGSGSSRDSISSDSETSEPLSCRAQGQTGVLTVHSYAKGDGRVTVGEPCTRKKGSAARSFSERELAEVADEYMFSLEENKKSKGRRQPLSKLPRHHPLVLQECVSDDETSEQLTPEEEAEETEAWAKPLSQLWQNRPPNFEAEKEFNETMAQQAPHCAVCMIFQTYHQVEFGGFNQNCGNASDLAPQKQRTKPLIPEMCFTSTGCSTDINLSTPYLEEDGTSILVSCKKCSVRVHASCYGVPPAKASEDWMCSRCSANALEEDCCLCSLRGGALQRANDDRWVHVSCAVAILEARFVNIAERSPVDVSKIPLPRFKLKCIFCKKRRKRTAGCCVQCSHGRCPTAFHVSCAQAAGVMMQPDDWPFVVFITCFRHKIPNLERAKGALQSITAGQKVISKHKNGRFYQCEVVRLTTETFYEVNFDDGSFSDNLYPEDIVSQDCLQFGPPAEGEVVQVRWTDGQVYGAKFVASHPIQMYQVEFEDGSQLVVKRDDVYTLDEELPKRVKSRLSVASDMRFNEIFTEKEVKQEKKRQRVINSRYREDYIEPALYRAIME
# Sequence of Luciferin 4-monooxygenase (P08659 whole entry): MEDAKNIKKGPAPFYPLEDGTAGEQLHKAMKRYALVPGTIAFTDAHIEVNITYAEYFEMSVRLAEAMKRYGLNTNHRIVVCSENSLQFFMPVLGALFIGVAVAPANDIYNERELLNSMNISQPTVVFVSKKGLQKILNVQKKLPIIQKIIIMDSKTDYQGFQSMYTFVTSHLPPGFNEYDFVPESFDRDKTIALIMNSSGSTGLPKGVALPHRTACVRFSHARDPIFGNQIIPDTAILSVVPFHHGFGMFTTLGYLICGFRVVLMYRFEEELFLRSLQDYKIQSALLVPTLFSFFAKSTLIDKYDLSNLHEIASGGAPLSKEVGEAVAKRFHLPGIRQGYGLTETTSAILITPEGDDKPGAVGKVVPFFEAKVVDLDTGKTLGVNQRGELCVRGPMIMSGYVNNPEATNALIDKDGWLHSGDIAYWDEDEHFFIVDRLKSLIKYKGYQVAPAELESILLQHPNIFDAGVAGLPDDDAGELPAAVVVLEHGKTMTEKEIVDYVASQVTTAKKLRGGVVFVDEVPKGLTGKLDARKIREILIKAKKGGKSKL
# Sequence of Paired box protein Pax-8 (Q06710 whole entry): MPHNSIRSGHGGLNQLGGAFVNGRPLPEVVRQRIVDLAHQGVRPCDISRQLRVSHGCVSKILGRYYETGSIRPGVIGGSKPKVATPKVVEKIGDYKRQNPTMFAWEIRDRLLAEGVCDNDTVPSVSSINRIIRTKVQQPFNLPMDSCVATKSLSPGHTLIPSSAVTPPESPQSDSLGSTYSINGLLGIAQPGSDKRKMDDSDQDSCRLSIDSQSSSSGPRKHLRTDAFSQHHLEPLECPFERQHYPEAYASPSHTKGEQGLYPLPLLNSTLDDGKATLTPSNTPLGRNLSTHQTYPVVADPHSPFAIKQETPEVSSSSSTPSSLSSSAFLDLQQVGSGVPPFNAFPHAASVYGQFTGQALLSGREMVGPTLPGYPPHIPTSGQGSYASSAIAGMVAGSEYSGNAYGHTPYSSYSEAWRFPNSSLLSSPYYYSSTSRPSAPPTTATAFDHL
# Sequence of Photoreceptor-specific nuclear receptor (Q9Y5X4 whole entry, the tested form may be a part): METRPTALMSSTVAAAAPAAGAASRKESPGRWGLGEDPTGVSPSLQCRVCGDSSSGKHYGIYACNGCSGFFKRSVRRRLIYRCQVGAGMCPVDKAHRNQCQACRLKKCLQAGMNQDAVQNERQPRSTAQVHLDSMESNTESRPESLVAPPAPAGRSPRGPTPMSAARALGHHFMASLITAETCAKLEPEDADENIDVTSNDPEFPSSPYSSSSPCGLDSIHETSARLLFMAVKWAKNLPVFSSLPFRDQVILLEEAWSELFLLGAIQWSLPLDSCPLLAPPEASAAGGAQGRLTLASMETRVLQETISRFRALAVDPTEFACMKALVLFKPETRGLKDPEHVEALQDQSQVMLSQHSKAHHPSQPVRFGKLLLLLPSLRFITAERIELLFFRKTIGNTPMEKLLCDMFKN
compound,measurement,setting,value
Cc1ccc(NC(=O)CCC(=O)N/N=C/c2ccc([N+](=O)[O-])o2)cc1C,EC50,[1],32 nM (active)
same,AC50,[2],6250 nM (active)
same,EC50,[3],> 195000 nM (not active)
same,EC50,[4],> 30000 nM (not active)
same,EC50,[5],32 nM (active)
same,AC50,[6],7440 nM (active)
same,EC50,[7],16 nM (active)
same,EC50,[8],< 100 nM (active)
COc1ccccc1C(=O)Nc1nc2ccccc2[nH]1,EC50,[9],607 nM (inconclusive)
same,AC50,[10],868 nM (active)
same,EC50,[11],802 nM (inconclusive)
same,AC50,[12],2040 nM (active)
same,IC50,[13],> 80000 nM (inactive)
same,AC50,[14],6260 nM (active)
same,EC50,[15],> 133000 nM (inactive)
same,EC50,[16],734 nM (active)
same,AC50,[17],555 nM (active)
same,AC50,[18],6080 nM (active)
same,AC50,[19],253 nM (active)
same,AC50,[20],2570 nM (active)
same,AC50,[21],1290 nM (active)
same,EC50,[22],159 nM (active)
same,AC50,[23],1790 nM (active)
same,AC50,[24],2330 nM (active)
same,AC50,[25],1710 nM (active)
same,IC50,[26],3250 nM (active)
same,AC50,[27],6570 nM (active)
same,EC50,[28],196 nM (active)
same,AC50,[6],1690 nM (active)
same,AC50,[29],217 nM (active)
same,AC50,[30],879 nM (active)
same,IC50,[31],570 nM (active)
same,EC50,[32],1830 nM (inconclusive)
same,AC50,[33],1410 nM (active)
COc1ccc(S(=O)(=O)N(C)C[C@@H]2Oc3c(NC(=O)Nc4ccc5c(c4)OCO5)cccc3C(=O)N([C@@H](C)CO)C[C@H]2C)cc1,AC50,[34],98300 nM (active)
C[C@@H](CN1CCC[C@H]1CN1C(N)=NC[C@@H]1Cc1ccccc1)N1C[C@@H](Cc2ccccc2)N(CCc2ccc(Cl)c(Cl)c2)C1=N,AC50,[35],9210 nM (active)
same,AC50,[36],15600 nM (active)
same,IC50,[37],> 20000 nM (inactive)
same,AC50,[38],24100 nM (active)
CCN(CC)c1cc(C)c2ccccc2n1,IC50,[39],5240 nM (active)
same,IC50,[40],7540 nM (active)
